Key:
FL5.12/Bcl-2 cells = assay: FL5.12/Bcl-2 cell viability assay under IL-3 withdrawal (CellTitre Glo); format: cell-based, murine; settings: Mus musculus, IL-3 withdrawn 48 hrs, then 24 hrs with compound
In short: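 Cells (1×10^6/ml) are washed, resuspended in medium lacking WEHI-3B conditioned medium as IL-3 source, and held 48 hrs. Compounds are then added at a range of concentrations for 24 hrs, after which CellTitre Glo reports viability.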

GST-Bcl-2 = GST-Bcl-2 (Homo sapiens, UniProt P10415); assay: TR-FRET binding assay, GST-Bcl-2 with F-Bak peptide probe; settings: TR-FRET Binding Affinity, GST-Bcl-2, F-Bak peptide probe
GST-Bcl-2, sequence (P10415 whole entry): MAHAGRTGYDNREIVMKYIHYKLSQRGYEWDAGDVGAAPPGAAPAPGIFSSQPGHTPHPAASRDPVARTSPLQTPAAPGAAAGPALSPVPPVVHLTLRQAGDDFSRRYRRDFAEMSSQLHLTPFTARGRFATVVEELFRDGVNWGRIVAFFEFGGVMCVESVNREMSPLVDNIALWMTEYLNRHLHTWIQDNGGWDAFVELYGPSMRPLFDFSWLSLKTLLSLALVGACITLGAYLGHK
In short: (§1)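 Ki was derived with Wang's equation for competitive binding of two ligands. The read-out was time-resolved fluorescence after a 3 h room-temperature incubation, using a Tb-labelled antibody donor and the F-Bak peptide acceptor (excitation 340/35 nm). Test compounds entered as DMSO serial dilutions starting at 50 μM, which was the 2× concentration.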

GST-Bcl-XL = GST-Bcl-XL (Homo sapiens, UniProt Q07817); assay: TR-FRET binding assay, GST-Bcl-XL with F-Bak peptide probe; settings: TR-FRET Binding Affinity, GST-Bcl-XL, F-Bak peptide probe
GST-Bcl-XL, sequence (Q07817 whole entry): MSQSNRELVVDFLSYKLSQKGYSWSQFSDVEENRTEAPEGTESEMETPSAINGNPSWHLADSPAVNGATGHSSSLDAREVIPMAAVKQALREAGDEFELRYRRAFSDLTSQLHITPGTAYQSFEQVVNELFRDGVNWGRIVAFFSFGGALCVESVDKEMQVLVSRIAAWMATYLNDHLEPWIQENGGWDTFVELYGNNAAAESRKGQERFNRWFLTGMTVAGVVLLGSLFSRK
In short: as §1

Canine platelets = assay: Platelet cell viability assay (platelet-rich plasma, Cell Titer Glo); format: cell-based; settings: Canis lupus familiaris, 5 h, isolated canine platelets ex vivo, five hours at 37° C.
In short: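 Isolated canine platelets were incubated ex vivo with a range of compound concentrations. After 20 min equilibration at room temperature, viability was measured by Cell Titer Glo luminescence.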

Row | SMILES | EC50 (FL5.12/Bcl-2 cells) [nM] | Ki (GST-Bcl-2) [nM] | Ki (GST-Bcl-XL) [nM] | EC50 (Canine platelets) [nM]
1 | CN1CCN(CCCNc2ccc(S(=O)(=O)NC(=O)c3ccc(N4CCN(Cc5ccccc5-c5ccc(Cl)cc5)CC4)cc3Oc3ccccc3)cc2[N+](=O)[O-])CC1 [Example 86, 4-{4-[(4′-chloro-1,1′-biphenyl-2-yl)methyl]piperazin-1-yl}-N-[(4-{[3-(4-methylpiperazin-1-yl)propyl]amino}-3-nitrophenyl)sulfonyl]-2-phenoxybenzamide] | 74 | 0.212 | 10.5 | 36300
2 | CC1(C)CCC(CN2CCN(c3ccc(C(=O)NS(=O)(=O)c4ccc(NCCCN5CCCC5)c([N+](=O)[O-])c4)c(Oc4cccc5[nH]ccc45)c3)CC2)=C(c2ccc(Cl)cc2)C1 [Example 102, 4-(4-{[2-(4-chlorophenyl)-4,4-dimethylcyclohex-1-en-1-yl]methyl}piperazin-1-yl)-2-(1H-indol-4-yloxy)-N-({3-nitro-4-[(3-pyrrolidin-1-ylpropyl)amino]phenyl}sulfonyl)benzamide] | 20 | 0.035 | 2.24 | 20200
3 | CC1(C)CCC(CN2CCN(c3ccc(C(=O)NS(=O)(=O)c4ccc(NCCCN5CCCC5)c([N+](=O)[O-])c4)c(Oc4cccc5[nH]ccc45)c3)CC2)=C(c2ccc(OC(F)(F)F)cc2)C1 [Example 70, 4-[4-({4,4-dimethyl-2-[4-(trifluoromethoxy)phenyl]cyclohex-1-en-1-yl}methyl)piperazin-1-yl]-2-(1H-indol-4-yloxy)-N-({3-nitro-4-[(3-pyrrolidin-1-ylpropyl)amino]phenyl}sulfonyl)benzamide] | 111 | 1.19 | 74.4 | > 50000
4 | CC1(C)CCC(CN2CCN(c3ccc(C(=O)NS(=O)(=O)c4ccc(NCCCN5CCCC5)c([N+](=O)[O-])c4)c(Oc4cccc5[nH]ccc45)c3)CC2)=C(c2ccc(F)cc2)C1 [Example 73, 4-(4-{[2-(4-fluorophenyl)-4,4-dimethylcyclohex-1-en-1-yl]methyl}piperazin-1-yl)-2-(1H-indol-4-yloxy)-N-({3-nitro-4-[(3-pyrrolidin-1-ylpropyl)amino]phenyl}sulfonyl)benzamide] | 140 | 1.7 | 16.9 | 23200
5 | CN1CCC(Nc2ccc(S(=O)(=O)NC(=O)c3ccc(N4CCN(CC5=C(c6ccc(Cl)cc6)CC(C)(C)C5)CC4)cc3Oc3cccc4[nH]ccc34)cc2[N+](=O)[O-])CC1 [Example 144, 4-(4-{[2-(4-chlorophenyl)-4,4-dimethylcyclopent-1-en-1-yl]methyl}piperazin-1-yl)-2-(1H-indol-4-yloxy)-N-({4-[(1-methylpiperidin-4-yl)amino]-3-nitrophenyl}sulfonyl)benzamide] | 46 | 53.9 | > 660 | 40000
6 | CC1(C)CCC(CN2CCN(c3ccc(C(=O)NS(=O)(=O)c4ccc(NCCCN5CCOCC5)c([N+](=O)[O-])c4)c(Oc4ccc5[nH]ccc5c4)c3)CC2)=C(c2ccc(Cl)cc2)C1 [Example 52, 4-(4-{[2-(4-chlorophenyl)-4,4-dimethylcyclohex-1-en-1-yl]methyl}piperazin-1-yl)-2-(1H-indol-5-yloxy)-N-({4-[(3-morpholin-4-ylpropyl)amino]-3-nitrophenyl}sulfonyl)benzamide] | 16 | 0.239 | 79.8 | > 50000
7 | CN(C)CCCNc1ccc(S(=O)(=O)NC(=O)c2ccc(N3CCN(CC4=C(c5ccc(Cl)cc5)CC(C)(C)CC4)CC3)cc2Oc2ccc3[nH]ccc3c2)cc1C#N [Example 172, 4-(4-{[2-(4-chlorophenyl)-4,4-dimethylcyclohex-1-en-1-yl]methyl}piperazin-1-yl)-N-[(3-cyano-4-{[3-(dimethylamino)propyl]amino}phenyl)sulfonyl]-2-(1H-indol-5-yloxy)benzamide] | 194 | 2.05 | 65.7 | > 50000
8 | CN1CCC(Nc2ccc(S(=O)(=O)NC(=O)c3ccc(N4CCN(CC5=C(c6ccc(Cl)cc6)CC(C)(C)CC5)CC4)cc3Oc3ccc4[nH]ccc4c3)cc2S(=O)(=O)C(F)(F)Cl)CC1 [Example 74, N-({3-{[chloro(difluoro)methyl]sulfonyl}-4-[(1-methylpiperidin-4-yl)amino]phenyl}sulfonyl)-4-(4-{[2-(4-chlorophenyl)-4,4-dimethylcyclohex-1-en-1-yl]methyl}piperazin-1-yl)-2-(1H-indol-5-yloxy)benzamide] | 8 | 0.02 | 25.2 | 16700
9 | CC1(C)CCC(CN2CCN(c3ccc(C(=O)NS(=O)(=O)c4ccc(NCCCN5CCOCC5)c([N+](=O)[O-])c4)c(Oc4cccc5[nH]ccc45)c3)CC2)=C(c2ccc(Cl)cc2)C1 [Example 55, 4-(4-{[2-(4-chlorophenyl)-4,4-dimethylcyclohex-1-en-1-yl]methyl}piperazin-1-yl)-2-(1H-indol-4-yloxy)-N-({4-[(3-morpholin-4-ylpropyl)amino]-3-nitrophenyl}sulfonyl)benzamide] | 22 | 0.196 | 24.9 | 36000
10 | CN1CCC(Nc2ccc(S(=O)(=O)NC(=O)c3ccc(N4CCN(CC5=C(c6ccc(Cl)cc6)CCCCCC5)CC4)cc3Oc3cccc4[nH]ccc34)cc2[N+](=O)[O-])CC1 [Example 146, 4-(4-{[2-(4-chlorophenyl)cyclooct-1-en-1-yl]methyl}piperazin-1-yl)-2-(1H-indol-4-yloxy)-N-({4-[(1-methylpiperidin-4-yl)amino]-3-nitrophenyl}sulfonyl)benzamide] | 152 | 44.2 | > 660 | 22000
11 | O=C(NS(=O)(=O)c1ccc(NCCCN2CCOCC2)c([N+](=O)[O-])c1)c1ccc(N2CCN(Cc3ccccc3-c3ccc(Cl)cc3)CC2)cc1Oc1ccccc1 [Example 155, 4-{4-[(4′-chloro-1,1′-biphenyl-2-yl)methyl]piperazin-1-yl}-N-({4-[(3-morpholin-4-ylpropyl)amino]-3-nitrophenyl}sulfonyl)-2-phenoxybenzamide] | 421 | 0.484 | 37.7 | > 50000
12 | CN(C)CCCNc1ccc(S(=O)(=O)NC(=O)c2ccc(N3CCN(Cc4ccccc4-c4ccc(Cl)cc4)CC3)cc2Oc2ccccc2)cc1[N+](=O)[O-] [Example 154, 4-{4-[(4′-chloro-1,1′-biphenyl-2-yl)methyl]piperazin-1-yl}-N-[(4-{[3-(dimethylamino)propyl]amino}-3-nitrophenyl)sulfonyl]-2-phenoxybenzamide] | 85 | 0.133 | 5.38 | 29000
13 | CN(C)CCOc1cccc(-c2ccc(Cl)cc2)c1CN1CCN(c2ccc(C(=O)NS(=O)(=O)c3ccc(NCC4CCOCC4)c([N+](=O)[O-])c3)c(Oc3cccc4[nH]ccc34)c2)CC1 [Example 128, 4-[4-({4′-chloro-3-[2-(dimethylamino)ethoxy]-1,1′-biphenyl-2-yl}methyl)piperazin-1-yl]-2-(1H-indol-4-yloxy)-N-({3-nitro-4-[(tetrahydro-2H-pyran-4-ylmethyl)amino]phenyl}sulfonyl)benzamide] | 25 | 0.051 | 363 | > 50000
14 | O=C(NS(=O)(=O)c1ccc(NCC2CCOCC2)c([N+](=O)[O-])c1)c1ccc(N2CCN(Cc3cc(OCCN4CCOCC4)ccc3-c3ccc(Cl)cc3)CC2)cc1Oc1cccc2[nH]ccc12 [Example 130, 4-(4-{[4′-chloro-4-(2-morpholin-4-ylethoxy)-1,1′-biphenyl-2-yl]methyl}piperazin-1-yl)-2-(1H-indol-4-yloxy)-N-({3-nitro-4-[(tetrahydro-2H-pyran-4-ylmethyl)amino]phenyl}sulfonyl)benzamide] | 197 | 0.14 | > 660 | > 50000
15 | CN1CCC(Nc2ccc(S(=O)(=O)NC(=O)c3ccc(N4CCN(CC5=C(c6ccc(Cl)cc6)CCCCC5)CC4)cc3Oc3cccc4[nH]ccc34)cc2[N+](=O)[O-])CC1 [Example 147, 4-(4-{[2-(4-chlorophenyl)cyclohept-1-en-1-yl]methyl}piperazin-1-yl)-2-(1H-indol-4-yloxy)-N-({4-[(1-methylpiperidin-4-yl)amino]-3-nitrophenyl}sulfonyl)benzamide] | 9 | 0.514 | > 660 | 17600
16 | CN1CCC(Nc2ccc(S(=O)(=O)NC(=O)c3ccc(N4CCN(CC5=C(c6ccc(Cl)cc6)CC(C)(C)CC5)CC4)cc3Oc3ccc4c(c3)CCCN4)cc2[N+](=O)[O-])CC1 [Example 23, 4-(4-{[2-(4-chlorophenyl)-4,4-dimethylcyclohex-1-en-1-yl]methyl}piperazin-1-yl)-N-({4-[(1-methylpiperidin-4-yl)amino]-3-nitrophenyl}sulfonyl)-2-(1,2,3,4-tetrahydroquinolin-6-yloxy)benzamide] | 1440 | 6.64 | 168 | > 50000
17 | O=C(NS(=O)(=O)c1ccc(NCCCN2CCCC2)c([N+](=O)[O-])c1)c1ccc(N2CCN(CC3=C(c4ccc(Cl)cc4)CCCCC3)CC2)cc1Oc1cccc2[nH]ccc12 [Example 141, 4-(4-{[2-(4-chlorophenyl)cyclohept-1-en-1-yl]methyl}piperazin-1-yl)-2-(1H-indol-4-yloxy)-N-({3-nitro-4-[(3-pyrrolidin-1-ylpropyl)amino]phenyl}sulfonyl)benzamide] | 76 | 0.673 | 28.6 | > 50000
